A value given as a limit tells only on which side of the number the result lay.

Sequence of HPK1 (Q92918 1-346 limits assumed): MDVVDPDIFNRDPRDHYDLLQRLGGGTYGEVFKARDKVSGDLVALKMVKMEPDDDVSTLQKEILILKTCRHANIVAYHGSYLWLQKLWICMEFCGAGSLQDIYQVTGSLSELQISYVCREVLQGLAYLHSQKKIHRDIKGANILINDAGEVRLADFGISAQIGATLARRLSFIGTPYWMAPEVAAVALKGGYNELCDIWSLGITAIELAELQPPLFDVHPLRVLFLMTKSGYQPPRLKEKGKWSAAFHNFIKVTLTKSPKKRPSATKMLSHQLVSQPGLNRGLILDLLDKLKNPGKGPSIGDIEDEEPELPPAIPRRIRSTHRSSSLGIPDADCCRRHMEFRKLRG

The assay addresses HPK1 (Homo sapiens (Human), UniProt Q92918). In words: HPK1 Inhibition Assay (ADP-Glo kinase assay). It counts as biochemical. To be noted: ATP 10 μM. An outline of the steps: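 ADP-Glo luminescence read-out after 1 h room-temperature kinase reaction with 10 μM ATP and 0.1 μg/ml MBP. Recombinant human HPK1 at 7.5 ng/μl; buffer 40 mM Tris pH 7.5, 20 mM MgCl2. Compounds serially diluted 5-fold over 10 points from 10 mM DMSO stock.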
For the molecule `Cc1cc(NC(=O)c2ccc(=O)n(-c3c(F)cccc3F)n2)c(N2CC[C@@H](N)C2)c2cn(C(C)C)nc12` [Example 226, (R)-N-(4-(3-aminopyrrolidin-1-yl)-2-isopropyl-7-methyl-2H-indazol-5-yl)-1-(2,6-difluorophenyl)-6-oxo-1,6-dihydropyridazine-3-carboxamide], the IC50 (commonly the concentration needed to halve the response being measured) was less than 0.1 µM.
`CC(C)n1cc2c(N3C[C@H](N)C(C)(C)C3)c(NC(=O)c3ccc(=O)n(-c4c(F)cccc4F)n3)ccc2n1` [Example 227, (R)-N-(4-(4-amino-3,3-dimethylpyrrolidin-1-yl)-2-isopropyl-2H-indazol-5-yl)-1-(2,6-difluorophenyl)-6-oxo-1,6-dihydropyridazine-3-carboxamide] gave an IC50 of less than 0.1 µM.
`CC(C)n1cc2c(N3C[C@@H](N)C(C)(C)C3)c(NC(=O)c3ccc(=O)n(-c4c(F)cccc4F)n3)ccc2n1` [Example 228, (S)-N-(4-(4-amino-3,3-dimethylpyrrolidin-1-yl)-2-isopropyl-2H-indazol-5-yl)-1-(2,6-difluorophenyl)-6-oxo-1,6-dihydropyridazine-3-carboxamide] registered an IC50 of less than 0.1 µM.
For the molecule `CC(C)n1cc2c(N3C[C@H](N)C4(CC4)C3)c(NC(=O)c3ccc(=O)n(-c4c(F)cccc4F)n3)ccc2n1` [Example 229], the IC50 was less than 0.1 µM.
Molecule `CC(C)n1cc2c(N3CCC(N)CC3)c(NC(=O)c3ccc(=O)n(-c4c(F)cccc4F)n3)ccc2n1` [Example 230, N-(4-(4-aminopiperidin-1-yl)-2-isopropyl-2H-indazol-5-yl)-1-(2,6-difluorophenyl)-6-oxo-1,6-dihydropyridazine-3-carboxamide] came in with an IC50 of less than 0.1 µM.
`CC(C)n1cc2c(N3C[C@H](C)[C@@H](N)C3)c(NC(=O)c3ccc(=O)n(-c4c(F)cccc4F)n3)ccc2n1` [Example 231, N-(4-((3R,4S)-3-amino-4-methylpyrrolidin-1-yl)-2-isopropyl-2H-indazol-5-yl)-1-(2,6-difluorophenyl)-6-oxo-1,6-dihydropyridazine-3-carboxamide] showed an IC50 of less than 0.1 µM.
Take `CC(C)n1cc2c(N3CCC[C@@H](N)C3)c(NC(=O)c3ccc(=O)n(-c4c(F)cccc4F)n3)ccc2n1` [Example 232, (R)-N-(4-(3-aminopiperidin-1-yl)-2-isopropyl-2H-indazol-5-yl)-1-(2,6-difluorophenyl)-6-oxo-1,6-dihydropyridazine-3-carboxamide]: the IC50 is less than 0.1 µM.
Consider `CC(C)n1cc2c(N3C[C@@H]4C[C@H]3CN4)c(NC(=O)c3ccc(=O)n(-c4c(F)cccc4F)n3)cc(F)c2n1` [Example 233, N-(4-((1S,4S)-2,5-diazabicyclo[2.2.1]heptan-2-yl)-7-fluoro-2-isopropyl-2H-indazol-5-yl)-1-(2,6-difluorophenyl)-6-oxo-1,6-dihydropyridazine-3-carboxamide], for which the IC50 is less than 0.1 µM.
`C[C@@H]1CN(c2c(NC(=O)c3ccc(=O)n(-c4c(F)cccc4F)n3)ccc3nn(C(C)(C)C)cc23)C[C@@H]1N` [Example 234, N-[4-[(3R,4R)-3-amino-4-methyl-pyrrolidin-1-yl]-2-tert-butyl-indazol-5-yl]-1-(2,6-difluorophenyl)-6-oxo-pyridazine-3-carboxamide] came in with an IC50 of less than 0.1 µM.
Turning to `CC(C)(C)n1cc2c(N3C[C@H](N)C4(CC4)C3)c(NC(=O)c3ccc(=O)n(-c4c(F)cccc4F)n3)ccc2n1` [Example 235, (R)-N-(4-(7-amino-5-azaspiro[2.4]heptan-5-yl)-2-(tert-butyl)-2H-indazol-5-yl)-1-(2,6-difluorophenyl)-6-oxo-1,6-dihydropyridazine-3-carboxamide], the IC50 was less than 0.1 µM.
In turn, `CC1(C)CN(c2c(NC(=O)c3ccc(=O)n(-c4c(F)cccc4F)n3)ccc3nn(C(C)(C)C)cc23)C[C@@H]1N` [Example 236, (R)-N-(4-(4-amino-3,3-dimethylpyrrolidin-1-yl)-2-(tert-butyl)-2H-indazol-5-yl)-1-(2,6-difluorophenyl)-6-oxo-1,6-dihydropyridazine-3-carboxamide] showed an IC50 of less than 0.1 µM.
For `CC1(C)CN(c2c(NC(=O)c3ccc(=O)n(-c4c(F)cccc4F)n3)ccc3nn(C(C)(C)C)cc23)C[C@H]1N` [Example 237, (S)-N-(4-(4-amino-3,3-dimethylpyrrolidin-1-yl)-2-(tert-butyl)-2H-indazol-5-yl)-1-(2,6-difluorophenyl)-6-oxo-1,6-dihydropyridazine-3-carboxamide] the value was less than 0.1 µM; for `C[C@H]1CN(c2c(NC(=O)c3ccc(=O)n(-c4c(F)cccc4F)n3)ccc3nn(C(C)(C)C)cc23)C[C@@H]1N` [Example 238, N-(4-((3R,4S)-3-amino-4-methylpyrrolidin-1-yl)-2-(tert-butyl)-2H-indazol-5-yl)-1-(2,6-difluorophenyl)-6-oxo-1,6-dihydropyridazine-3-carboxamide], less than 0.1 µM.
In turn, `CC(C)(C)n1cc2c(N3CCC[C@@H](N)C3)c(NC(=O)c3ccc(=O)n(-c4c(F)cccc4F)n3)ccc2n1` [Example 239, (R)-N-(4-(3-aminopiperidin-1-yl)-2-(tert-butyl)-2H-indazol-5-yl)-1-(2,6-difluorophenyl)-6-oxo-1,6-dihydropyridazine-3-carboxamide] registered an IC50 of less than 0.1 µM.
Consider `CC(C)(C)n1cc2c(N3CCC(N)CC3)c(NC(=O)c3ccc(=O)n(-c4c(F)cccc4F)n3)ccc2n1` [Example 240, N-(4-(4-aminopiperidin-1-yl)-2-(tert-butyl)-2H-indazol-5-yl)-1-(2,6-difluorophenyl)-6-oxo-1,6-dihydropyridazine-3-carboxamide], for which the IC50 was less than 0.1 µM.
For `CC(C)(C)n1cc2c(N3CC[C@@H](N)C3)c(NC(=O)c3ccc(=O)n(-c4c(F)cccc4F)n3)ccc2n1` [Example 241, (R)-N-(4-(3-aminopyrrolidin-1-yl)-2-(tert-butyl)-2H-indazol-5-yl)-1-(2,6-difluorophenyl)-6-oxo-1,6-dihydropyridazine-3-carboxamide] the value was less than 0.1 µM; for `CC(C)(C)n1cc2c(N3C[C@@H](N)C4(CC4)C3)c(NC(=O)c3ccc(=O)n(-c4c(F)cccc4F)n3)ccc2n1` [Example 242, (S)-N-(4-(7-amino-5-azaspiro[2.4]heptan-5-yl)-2-(tert-butyl)-2H-indazol-5-yl)-1-(2,6-difluorophenyl)-6-oxo-1,6-dihydropyridazine-3-carboxamide], less than 0.1 µM; for `CCC(C)(C)n1cc2c(N3C[C@H](C)[C@@H](N)C3)c(NC(=O)c3ccc(=O)n(-c4c(F)cccc4F)n3)ccc2n1` [Example 243, N-(4-((3R,4S)-3-amino-4-methylpyrrolidin-1-yl)-2-(tert-pentyl)-2H-indazol-5-yl)-1-(2,6-difluorophenyl)-6-oxo-1,6-dihydropyridazine-3-carboxamide], less than 0.1 µM.
Take `CCC(C)(C)n1cc2c(N3C[C@@H](C)[C@@H](N)C3)c(NC(=O)c3ccc(=O)n(-c4c(F)cccc4F)n3)ccc2n1` [Example 244, 1-(2,6-difluorophenyl)-N-(4-[(3R,4R)-3-amino-4-methyltetrahydro-1H-pyrrol-1-yl]-2-(2-methylbut-2-yl)indazol-5-yl)-6-oxo-1,2-diazine-3-carboxamide]: the IC50 is less than 0.1 µM.

These data come from patent US20250122174A1 (Shenzhen Yuanli Shenwan Innovative Medicine Co., Ltd., priority 2022, published 2025).
